Results reported in paper PMC12959773 (Protein & Cell, 2025).
Substitutions are numbered along the chain they refer to.

What was measured:
SLC7A9-SLC3A1 complex = target: T1, SLC7A9-SLC3A1 complex (Homo sapiens, UniProt P82251); assay: microscale thermophoresis; conditions: read-out: binding affinity
T1 construct: heterodimeric light/heavy chain transporter, dimer of heterodimers; ectopically expressed in HEK293T cells; with Amino acid transporter heavy chain SLC3A1
T1 sequence (P82251 1-487): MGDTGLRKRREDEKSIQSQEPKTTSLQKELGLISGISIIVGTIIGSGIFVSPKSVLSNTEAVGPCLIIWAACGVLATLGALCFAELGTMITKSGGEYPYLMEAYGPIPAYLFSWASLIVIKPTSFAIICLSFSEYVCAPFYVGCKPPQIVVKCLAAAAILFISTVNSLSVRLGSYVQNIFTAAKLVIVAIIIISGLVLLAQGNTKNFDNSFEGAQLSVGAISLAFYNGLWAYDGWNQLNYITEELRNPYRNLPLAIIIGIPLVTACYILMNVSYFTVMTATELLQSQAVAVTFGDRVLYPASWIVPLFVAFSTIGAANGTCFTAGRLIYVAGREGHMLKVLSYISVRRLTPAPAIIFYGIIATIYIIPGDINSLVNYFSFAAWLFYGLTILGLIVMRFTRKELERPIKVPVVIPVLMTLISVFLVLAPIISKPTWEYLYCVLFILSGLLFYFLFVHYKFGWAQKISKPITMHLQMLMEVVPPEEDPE
T1 sequence (Q07837 1-685 partner): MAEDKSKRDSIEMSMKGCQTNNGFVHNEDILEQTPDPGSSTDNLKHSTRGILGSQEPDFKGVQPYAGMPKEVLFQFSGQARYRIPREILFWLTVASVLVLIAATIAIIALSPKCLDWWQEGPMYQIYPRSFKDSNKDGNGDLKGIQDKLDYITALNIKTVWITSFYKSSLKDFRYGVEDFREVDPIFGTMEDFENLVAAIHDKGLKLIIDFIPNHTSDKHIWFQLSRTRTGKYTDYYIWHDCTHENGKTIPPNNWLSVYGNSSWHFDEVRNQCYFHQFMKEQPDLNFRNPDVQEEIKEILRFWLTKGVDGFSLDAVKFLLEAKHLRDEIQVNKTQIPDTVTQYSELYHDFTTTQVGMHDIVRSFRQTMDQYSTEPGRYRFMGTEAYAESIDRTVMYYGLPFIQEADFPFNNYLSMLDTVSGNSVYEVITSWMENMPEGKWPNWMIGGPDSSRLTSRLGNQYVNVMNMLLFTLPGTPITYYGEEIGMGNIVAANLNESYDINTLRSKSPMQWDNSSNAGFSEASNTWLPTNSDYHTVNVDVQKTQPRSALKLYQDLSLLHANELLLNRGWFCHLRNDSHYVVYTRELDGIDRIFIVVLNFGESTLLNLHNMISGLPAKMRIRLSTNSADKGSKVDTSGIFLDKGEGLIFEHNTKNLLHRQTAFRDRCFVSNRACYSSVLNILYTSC

SLC7A13-SLC3A1 complex [1] = target: T2, SLC7A13-SLC3A1 complex (Homo sapiens, UniProt Q8TCU3, T225A); assay: [2H]-cystine uptake, isotope tracking; type: cell-based; conditions: HEK293 cells transfected with SLC7A13 and SLC3A1; labelled compound
T2 construct: heterodimeric light/heavy chain transporter, dimer of heterodimers; ectopically expressed in HEK293T / HEK293 cells (Expi293 for cryo-EM); with Amino acid transporter heavy chain SLC3A1
T2 sequence (Q8TCU3 1-470 T225A): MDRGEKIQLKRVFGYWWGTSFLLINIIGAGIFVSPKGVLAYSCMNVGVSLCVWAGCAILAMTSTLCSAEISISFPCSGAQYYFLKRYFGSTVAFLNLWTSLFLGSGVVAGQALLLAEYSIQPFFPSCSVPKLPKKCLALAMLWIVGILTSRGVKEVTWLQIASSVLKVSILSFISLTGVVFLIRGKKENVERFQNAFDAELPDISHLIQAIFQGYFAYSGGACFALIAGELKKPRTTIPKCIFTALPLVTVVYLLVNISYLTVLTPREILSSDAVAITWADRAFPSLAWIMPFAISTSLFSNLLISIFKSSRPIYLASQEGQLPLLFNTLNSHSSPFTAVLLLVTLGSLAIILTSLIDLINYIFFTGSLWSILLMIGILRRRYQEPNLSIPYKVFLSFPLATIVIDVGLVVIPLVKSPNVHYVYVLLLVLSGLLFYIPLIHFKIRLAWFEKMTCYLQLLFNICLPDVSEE
T2 sequence (Q07837 1-685 partner): T1 sequence (Q07837 1-685 partner)

SLC7A13-SLC3A1 complex [2] = target: T3, SLC7A13-SLC3A1 complex (Homo sapiens, UniProt Q8TCU3, F224A); assay: [2H]-cystine uptake, isotope tracking; type: cell-based; conditions: HEK293 cells transfected with SLC7A13 and SLC3A1; labelled compound
T3 construct: heterodimeric light/heavy chain transporter, dimer of heterodimers; ectopically expressed in HEK293T / HEK293 cells (Expi293 for cryo-EM); with Amino acid transporter heavy chain SLC3A1
T3 sequence (Q8TCU3 1-470 F224A): T2 sequence (Q8TCU3 1-470 T225A) with F224A, A225T
T3 sequence (Q07837 1-685 partner): T1 sequence (Q07837 1-685 partner)

SLC7A13-SLC3A1 complex [3] = target: T4, SLC7A13-SLC3A1 complex (Homo sapiens, UniProt Q8TCU3); assay: microscale thermophoresis; conditions: read-out: binding affinity
T4 construct: heterodimeric light/heavy chain transporter, dimer of heterodimers; ectopically expressed in HEK293T / HEK293 cells (Expi293 for cryo-EM); with Amino acid transporter heavy chain SLC3A1
T4 sequence (Q8TCU3 1-470): T2 sequence (Q8TCU3 1-470 T225A) with A225T
T4 sequence (Q07837 1-685 partner): T1 sequence (Q07837 1-685 partner)

Kd (SLC7A9-SLC3A1 complex): 107 ± 33.5 µM
Kd (SLC7A13-SLC3A1 complex [3]): 112 ± 44 µM
Structure (SMILES): N[C@@H](CSSC[C@H](N)C(=O)O)C(=O)O [cystine]
cystine uptake (SLC7A13-SLC3A1 complex [1]): mutation in any of the seven SLC7A13-specific residues to alanine significantly reduced SLC7A13’s transporter activities
cystine uptake (SLC7A13-SLC3A1 complex [2]): mutation in any of the seven SLC7A13-specific residues to alanine significantly reduced SLC7A13’s transporter activities
